Laboratory results as given in patent publication US20230167437A1, “COMPOSITIONS FOR TREATING CANCER WITH KRAS MUTATIONS AND USES THEREOF” (Aadigen, LLC, priority 2020, published 2023).

What was measured:
[1] = test system: KRAS 35G>T mutant G12V; test: Indel frequencies at the endogenous target sequences (T7E1 / deep sequencing) after ADGN/Cas9 mRNA/gRNA transfection; assay type: cell-based, human; conditions: for indel frequencies: deep sequencing, 72 hours after transfection, Cas9 mRNA 0.15 μg, gRNA 0.2 μg, ADGN-100
Experimental: (§1) Complex formation with mRNA:gRNA: ADGN peptide/mRNA/gRNA particles were prepared at a 20:1:1 molar ratio. ADGN/Cas9mRNA/sgRNA complexes were prepared at a 20/1/1 molar ratio with 0.5 μg mRNA: 1.5 μg sgRNA and 5% Glucose or DMEM (example for 96 well plates). […] Premixed Cas9 mRNA/gRNA were prepared in sterile water at room temperature in a glass vial (1-4 ml). ADGN-peptide solution was added dropwise (1 drop/sec) under magnetic agitation at 400 rpm to obtain a 1:2 ratio, and incubated for 30 min at room temperature or 37° C. Just before transfection, 150 μl Glucose or DMEM was added and the solution was mixed under magnetic agitation at 400 rpm for 1 minute. Then the solution was incubated for 5 min at 37° C. Then the complexes was ready for cell transfection or IV administration. Prior to IV administration, complexes were diluted in sucrose 5% solution.
(§2) Transfection protocol. The following protocols are reported for 24/48/96 well plate format transfection. Cells should be trypsinized and seeded a day prior transfection Cells were cultured in Dulbecco's Modified Eagle's Medium (DMEM), supplemented with 2 mM glutamine, 1% antibiotics (streptomycin 10,000 μg/mL, penicillin, 10,000 IU/mL) and 10% (w/v) foetal calf serum (FCS), at 37° C. in a humidified atmosphere containing 5% CO2. 96 well plates seeded with 50,000 cells, the day prior transfection, grown to 60-80% confluence and set up to be at around 70% confluence at the day of transfection. Before transfection, cells are washed twice with DMEM (without FBS and pen/strep) (100 μl/well). Cells were then overlaid with 25 μl of complex solution, mixed gently and incubated for 10 min at 37° C.+5% CO2. 50 μl of fresh DMEM (without FBS and Antibiotics) was added and cells were incubated for 2 h at 37° C.+5% CO2 (time of exposure can be adjusted based on sensitivity of the cells). 250 μL of DMEM (containing 10% FCS and 1% antibiotics) were then added without removing the overlay of ADGN peptide/mRNA complexes. Cells were returned to the incubator (37° C., 5% CO2) and analyzed 48 hours to 72 hours post transfection.
(§3) Nine different gRNAs targeting KRAS 35G>T mutant G12V (gRNA35T1, gRNA35T2, gRNA35T3, gRNA35T4, gRNA35T5, gRNA35T6, gRNA35T7, gRNA35T8 and gRNA35T9 (see FIG. 18)) were evaluated on SW403 and SW480 cancer cells harboring G12V KRAS mutation. Cas9 mRNA (0.15 μg) and gRNA (0.2 μg) were associated with ADGN-peptides as reported in experimental procedure. SW403, SW480 and HT-29 cells were cultured in 48 well plate format and treated with free mRNACas9-gRNA, or ADGN-100/mRNACas9:gRNA complex. Indel frequencies at the endogenous target sequences was evaluated 72 hours after transfection by either T7E1 method and by deep sequencing. Cell proliferation was analyzed over a period of 5 days using CellTiter Glow kits on GlowMax (Promega).
(§4) In order to confirm the specificity of sgRNAs targeting G12V, G12C or G12D KRAS mutation, gRNA35T3 targeting G12V, gRNA34T6 targeting G12C, and gRNA35A5 targeting G12D were evaluated on a large panel of cancer cells harboring different KRAS mutations including SW403, SW480, PANC1, PK-45H, PK-1, MIA-PACA, H23, H358, HT-29, HS-68 and LS513. Cas9 mRNA (0.2 μg) and gRNA (0.4 μg) were associated with ADGN peptide at molar ratio 20/1 (peptide/nucleic acid). Cells were cultured in 48 well plate format and treated with free mRNACas9-gRNA, or ADGN/mRNACas9:gRNA complex. Indel frequencies at the endogenous target sequences was evaluated 72 hours after transfection by either T7E1 method and cell proliferation was analyzed over a period of 5 days using CellTiter Glow kits on GlowMax (Promega).

[2] = test system: wild type KRAS; test: as above; assay type: cell-based, human; conditions: HT29 cells
Experimental: as §1, §2, §3
Nine different gRNAs targeting KRAS 35G>A mutant G12D (gRNA35A1, gRNA35A2, gRNA35A3, gRNA35A4, gRNA35A5, gRNA35A6; gRNA35A7, gRNA35A8, gRNA35A9) were evaluated on LS513, Panc1, PK-45H, and PK1 cancer cells harboring G12D KRAS mutation. Cas9 mRNA (0.1 μg) and gRNA (0.2 μg) were associated with ADGN-peptide at molar ratio 20/1 (peptide/nucleic acid). LS513, Panc1, PK-45H, PK1, HS-68 and HT-29 cells were cultured in 48 well plate format and treated with free mRNACas9-gRNA, or ADGN/mRNACas9:gRNA complex. Indel frequencies at the endogenous target sequences was evaluated 72 hours after transfection by either T7E1 method or deep sequencing. Cell proliferation was analyzed over a period of 5 days using CellTiter Glow kits on GlowMax (Promega).

[3] = test system: HT-29 cells; test: Cell proliferation over 5 days (CellTiter Glow); assay type: cell-based, human; conditions: KRAS WT cells
Experimental: as §2, §3

[4] = test system: phospho-Akt (Ser 473); test: Western blot of KRAS downstream signaling 48 h post transfection; assay type: cell-based, human; conditions: SW403 cells
Experimental: (§5) In order to verify the specific effect of your lead sgRNA targeting G12V and G12D KRAS mutation, gRNA35A5 G12D and gRNA35T3 G12V on KRAS signal transduction pathway in PANC-1 and SW403 cells, we measured the levels of downstream signaling proteins that are activated by KRAS. We specifically looked for changes in key signaling pathways, such as mitogen-activated protein kinase (MAPK) or PI3K/Akt, which are known to be the major effector pathways of KRAS activation. Cas9 mRNA (0.2 μg) and gRNA (0.2 μg or 0.5 μg) were associated with ADGN peptide at molar ratio 20/1 (peptide/nucleic acid). PANC1 and SW403 cells were cultured in 48 well plate format and treated with free mRNACas9-gRNA, or ADGN/mRNACas9:gRNA complex. Levels of Erk and Akt phosphorylation were measured 48 h post transfection by western blot using phospho-Akt (Ser 473) (CST, #9271, RRID:AB_329825) and phospho-p44/42 MAPK (Erk1/2) (Thr202/Tyr204) (CST, #4370, RRID:AB_2315112).

[5] = test system: phospho-p44/42 MAPK (Erk1/2) (Thr202/Tyr204); test: as above; assay type: cell-based, human; conditions: SW403 cells
Experimental: as §5

[6] = test system: G12V, G12D, G12C KRAS mutant cells and WT KRAS cells; test: Specificity of lead sgRNAs on a large panel of cancer cells harboring different KRAS mutations (indel, proliferation); assay type: cell-based, human; conditions: Cas9 mRNA 0.2 μg, gRNA 0.4 μg
Experimental: as §4

[7] = test system: SW403 and SW480 cells; test: Cell proliferation over 5 days (CellTiter Glow); assay type: cell-based, human
Experimental: as §2, §3

[8] = test system: pERK; test: Downstream signaling proteins quantified by ELISA on tumors; assay type: in vivo, mice; conditions: SW403 tumors
Experimental: The specificity of gRNA35A5 G12D and gRNA35T3 G12V for their targets in PANC-1 and SW403 tumors cells, have been analyzed. Female nude mice 6-weeks of age were injected with either Human pancreatic carcinoma cell (Panc1-Luc) containing the 35G>A mutation or Human colorectal cancer cells (SW403) containing 35G>T KRAS mutation (20×10^6 cells in 200 μl PBS). A period of 2 weeks was allowed for tumor development before the beginning of the experiments.
Animal were injected on day 1 and day 7. Mice received IV injection of 100 μl ADGN/mRNA complex in 5% glucose. At Day 50, animals were sacrificed and tissues/tumors were harvested. At Day 50 post treatment, level of expression of housekeeping genes; glyceraldehyde-3-phosphate dehydrogenase (GAPDH), HPRT-1 and mitochondrial ATP synthase 6 (mATPsy6) was evaluated by PCR in the tumor, liver, spleen and lung.
We analyzed the level of KRAS G12D or KRAS G12V gene editing by deep sequencing in PANC1 (FIG. 14A) and SW403 (FIG. 14B) tumors, respectively. […] The level of downstream signaling proteins (pAKT and pERK) were quantified by ELISA on PANC1 and SW403 tumors. […] Given that targeting KRAS using Cas9/sgRNA can induce various secondary mutations at or near the target sites, deep sequencing shown similar level of secondary oncogenic mutations (G12D, G12V, G12C, G13D, G12R, G12A, and G12S) in KRAS-mutant cancer cells (SW403/PANC-1) or cells containing wild-type KRAS (HT29) either in vitro or in vivo.

[9] = test system: SW403 tumor (Human colorectal cancer, 35G>T); test: SW403 tumor growth in vivo, combination with Capecitabine; set-up: species or system mice; conditions: Capecitabine 200 μg once a week
Experimental: It was also evaluated whether targeting mutant KRAS in combination with a chemotherapeutic agent can suppress tumor growth in vivo when administered intravenously using ADGN-100-Hy3 nanoparticles. Female nude mice 6-weeks of age were injected with either Human pancreatic carcinoma cell (Panc1-Luc) containing the 35G>A mutation, or Human colorectal cancer cells (SW403) containing 35G>T KRAS mutation (20×10^6 cells in 200 μl PBS). The animals were kept under pathogen-free conditions and fed and watered ad libitum, in cages of 2 to 4 animals (in compliance with recommended area surface/animal), in a dedicated room with a 12 h/12 h light/dark cycle at a constant temperature of 22° C. A period of 2 weeks was allowed for tumor development before the beginning of the experiments […]
Animal were injected ADGN/mRNA complex on day 1 and day 7. […] PANC-1 tumor size was evaluated by bioluminescence imaging. […] Semi-quantitative data of luciferase-positive tumor cell signals were obtained using the manufacturer's software (Living Image; PerkinElmer). Results were expressed as photons/second (photons/s). […] Results were then expressed as values relative to day 0. SW403 tumor size was evaluated every 7 days using caliper. Results were then expressed as values relative to day 0. […]

[10] = SW403 cells (heterozygous 35G>T)

Compound | indel frequencies [1, 10] [%] | indel frequencies ([1]; SW480 cells (homozygous 35G>T)) [%] | disruption of WT KRAS [2] | HT-29 proliferation [3] | indel frequency ([1]; KRAS G12V mutated cancer cells) [%] | indel editing and disruption of G12V mutant KRAS (FIG. 1A) ([1]; SW403, SW480 vs wild type KRAS HT29 cells, T7E1) | indel frequency ([1]; SW403 and SW480 cells, T7E1, 72 hours, Cas9 mRNA 0.2 μg, gRNA 0.4 μg) [%] | Akt phosphorylation [4] | level of p-Erk [5] | effect on non-targeted KRAS mutant cells and WT KRAS cells (FIGS. 4A-4B) [6] | fold more efficient than gRNA35T6 (cell proliferation) ([7]; SW403 and SW480 cells) [fold] | fold more efficient than gRNA35T8 (cell proliferation) ([7]; SW403 and SW480 cells) [fold] | cell proliferation blocked ([7]; SW403 and SW480 cells, 5 days) [%] | inhibition of proliferation or survival (FIG. 1B) ([7]; SW480 and SW403 cells vs HT29 cells harboring KRAS WT) | level of p-ERK [8] | reduction of SW403 tumor growth [9] [%]
AGC TGT TGG CGT AGG CAA (guide AGCTGTTGGCGTAGGCAA; chemistry not given here) [gRNA35T4, sgRNA target KRAS G12V mutation (c.35G>T); PAM GAG] | 22 | 41 | also induced disruption of WT KRAS in HT29 cells | altered also HT-29 proliferation |  |  |  |  |  |  |  |  |  |  |  | 
GGTAGTTGGAGCTGTTGGCG (guide GGTAGTTGGAGCTGTTGGCG; chemistry not given here) [gRNA35T3, sgRNA target KRAS G12V mutation (c.35G>T); PAM TAG] | 65 | 81 |  |  | > 70 | specifically induced indel editing and efficient disruption | > 65 | poorly | significantly affected | does not alter G12D and G12C KRAS mutant cells or WT KRAS cells | 2 | 1.5 | 75 | specifically inhibit proliferation or survival of SW480 and SW403 cells | significantly affected | 
CCCCCOC(=O)Nc1nc(=O)n([C@@H]2O[C@H](C)[C@@H](O)[C@H]2O)cc1F [Capecitabine] |  |  |  |  |  |  |  |  |  |  |  |  |  |  |  | 38
